Assay: Cytotoxic effects in vitro on normal lung cells
Assay type: cell-based
Details: IMR-90 normal lung fibroblast cells; human normal lung fibroblast (IMR-90); read-out: IC50, cytotoxicity towards human normal cells IMR-90

C#Cc1cccc(Nc2ncnc3cc(OCCOC)c(OCCOC)cc23)c1 [Erlotinib, erlotinib, reference compound]
IC50: 39.6 ± 1.15 µM

— paper PMC10408569, “Recruitment of hexahydroquinoline as anticancer scaffold targeting inhibition of wild and mutants EGFR (EGFR^WT, EGFR^T790M, and EGFR^L858R)” (Journal of Enzyme Inhibition and Medicinal Chemistry, 2023)
